Data on 3 compounds can be found in publication PMC12193833, “Toxicity Assessment and Antifungal Potential of Copper(II) and Silver(I) Complexes with 1,10-Phenanthroline-5,6-dione Against Drug-Resistant Clinical Isolates of Cryptococcus gattii and Cryptococcus neoformans” (Journal of Fungi, 2025).

Series [1] relates to C. neoformans or C. gattii. In words: Stability of antifungal activity (MIC repeated every six months over two years). The class given is cell-based, Cryptococcus neoformans and Cryptococcus gattii. To be noted: same DMSO solution, room temperature, protected from light, MIC every six months for 730 days. From the text: To evaluate the stability of the antifungal activity of the test complexes, the MIC assay was repeated every six months over a two-year period using the same Ag-phendione or Cu-phendione solution. The solutions were stored at room temperature and protected from light to maintain their chemical integrity.

The test system of series [2] is C. gattii reference strain R265. In words: MIC of complexes against reference strain. The class given is cell-based, Cryptococcus gattii. From the text:
(§1) To further support and strengthen the evidence of the anti-Cryptococcus activity of the Cu-phendione and Ag-phendione complexes, we additionally performed MIC/MFC assays using well-characterized standard reference strains: ATCC 28957, […], […] (all C. neoformans), and […]).

Series [3] deals with Galleria mellonella larvae. Nature of the series: In vivo acute toxicity, single treatment. To be noted: single inoculation. On the procedure:
(§2) In this set of experiments, G. mellonella larvae weighing approximately 0.2–0.3 g and displaying clear, uniform coloration were used. The larvae were inoculated (10 µL/larva) using an insulin syringe (BD Ultra-Fine, Franklin Lakes, NJ, USA) at the last left proleg. […] We also assessed their coloration through visual analysis as an indicator of stress levels. Throughout the experiments, the larvae were maintained at 37 °C [19, 42]. Two distinct treatment protocols were designed to evaluate the effects of the test compounds on larval survivability, as detailed below.
For the acute toxicity analysis, the test compounds were administered to the larvae in a single inoculation at concentrations ranging from 1000 to 125 μM. Each group consisted of 10 larvae, while the control group received only sterile PBS with 4% DMSO. […] The SI was calculated using the following equation: SI = G. mellonella CC50/Cryptococcus MIC.

For series [4], the system named is C. neoformans reference strains (ATCC 28957, H99, T1444). In words: MIC of complexes against reference strains. The class given is cell-based, Cryptococcus neoformans.
Description: as §1

In series [5] the test system is Galleria mellonella larvae. In words: In vivo chronic toxicity, multiple treatment. On the procedure:
as §2
For the chronic toxicity analysis, larvae were inoculated daily for five consecutive days with the test complexes (Cu-phendione or Ag-phendione) at a high concentration of 62.5 μM. Each group consisted of 10 larvae, while the control group received only sterile PBS with 4% DMSO.

The test system of series [6] is C. neoformans clinical isolates. In words: MIC/MFC of test compounds, microdilution. Format: cell-based, Cryptococcus neoformans. To be noted: for MIC: read-out: MIC. From the text: (§3) Six clinical isolates belonging to the Cryptococcus genus were obtained from patients who attended the Instituto Nacional de Infectologia Evandro Chagas (INI), Fundação Oswaldo Cruz (FIOCRUZ), and were kindly provided by Dr. Rodrigo Almeida-Paes (INI-FIOCRUZ). To comply with ethical standards and institutional agreements between UFRJ and FIOCRUZ, patient data were not disclosed. In this sense, the C. neoformans isolates were designated CFP00213 (213), CFP00223 (223), and CFP00350 (350), while the C. gattii isolates were labeled CFP00023 (23), CFP00025 (25), and CFP00027 (27). Before each experiment, an aliquot of the culture was transferred from Sabouraud dextrose agar (2% glucose, 1% peptone, and 0.5% yeast extract) to RPMI 1640 medium (Sigma-Aldrich, St. Louis, MO, USA), pH 7.2, buffered with 0.165 M MOPS (Sigma-Aldrich, St. Louis, MO, USA). RPMI medium induces the expression of capsular polysaccharides, the primary virulence factor of Cryptococcus cells. The cultures were incubated at 37 °C for 48 h to promote cell proliferation, stimulate metabolic activation, and enhance capsular development. Yeast cell counts were determined using a Neubauer chamber.
(§4) Following MIC determination, the MFC was assessed by inoculating 10 µL from wells showing no visible fungal growth onto Sabouraud dextrose agar. […] To further support and strengthen the evidence of the anti-Cryptococcus activity of the Cu-phendione and Ag-phendione complexes, we additionally performed MIC/MFC assays using well-characterized standard reference strains: ATCC 28957, H99, T1444 (all C. neoformans), and R265 (C. gattii).
For orientation: Broth dilution looks for growth in wells or tubes with falling amounts of substance.

A further series concerns mice. Set-up: method as in doi:10.1039/c2tx00010e. To be noted: cited from earlier work.
For a further series, the system named is hamsters. Set-up: method as in doi:10.1016/j.ejmcr.2022.100093. To be noted: 1 mg/kg five times per week for nine weeks; cited from earlier work.
The test system of series [7] is C. gattii clinical isolates. In words: MIC/MFC of test compounds, microdilution. To be noted: for MIC: read-out: MIC. The class given is cell-based, Cryptococcus gattii.
Description: as §3, §4

Series [8] deals with hemocytes of G. mellonella larvae. Format: in vivo, Galleria mellonella. To be noted: single inoculation, any concentration tested (15.6–1000 µM), 24 h. On the procedure: The hemocyte density in the hemolymph of larvae inoculated with both complexes was assessed to evaluate potential immunological changes in G. mellonella. […] To analyze hemocyte density, a ventral caudal incision was made between the last prolegs of each larva using a surgical scalpel, and 10 μL of hemolymph was collected. The hemolymph was then diluted 1:100 in 990 μL of an anticoagulant buffer solution (98 mM NaOH, 186 mM NaCl, 17 mM EDTA, and 41 mM citric acid, pH 4.5). The number of hemocytes in each dilution was subsequently counted using a Neubauer chamber (Thermo Fisher Scientific, Waltham, MA USA).

Series [9] relates to six clinical Cryptococcus isolates. In words: Susceptibility to clinically available antifungals, all six isolates. The class given is cell-based, Cryptococcus neoformans and Cryptococcus gattii. To be noted: across all six clinical Cryptococcus isolates.
Description: as §3
(§5) The susceptibility profile was evaluated using the microdilution method in RPMI 1640 medium buffered with 0.165 M MOPS, following the M27-A3 protocol for yeasts established by the Clinical and Laboratory Standards Institute (CLSI). […] Each fungal isolate was classified as either wild-type or non-wild-type for each antifungal based on the epidemiological cutoff values provided in CLSI M59 ED3, 2020 [32].

For series [10], the system named is C. neoformans clinical isolates. In words: Susceptibility to clinically available antifungals, CLSI M27-A3 microdilution. Format: cell-based. To be noted: Cryptococcus neoformans.
Description: as §3, §5

The subject of series [11] is C. gattii clinical isolates. Described as above. The class given is cell-based. To be noted: Cryptococcus gattii.
Description: as §3, §5

The next series relates to G. mellonella. To be noted: cited from earlier work.
[12] abbreviates: 62.5 µM daily for five consecutive days.
The mark [13] stands for this setting: all C. neoformans clinical isolates.
The mark [14] stands for this setting: all C. gattii clinical isolates.
[15] abbreviates: 24 h, C. neoformans isolate 213, 37 °C.
Where [16] appears, read: 24 h, C. neoformans isolate 223, 37 °C.
Setting [17] is: 24 h, C. neoformans isolate 350, 37 °C.
Where [18] appears, read: C. neoformans isolate 213, value in brackets.
Where [19] appears, read: C. neoformans isolate 223, value in brackets.
Where [20] appears, read: C. neoformans isolate 350, value in brackets.
Setting [21] is: 24 h, C. gattii isolate 23, 37 °C.
Setting [22] is: 24 h, C. gattii isolate 25, 37 °C.
The mark [23] stands for this setting: 24 h, C. gattii isolate 27, 37 °C.
The mark [24] stands for this setting: C. gattii isolate 23, value in brackets.
Setting [25] is: C. gattii isolate 25, value in brackets.
Where [26] appears, read: C. gattii isolate 27, value in brackets.

The structures appear in SMILES notation. In brackets after ≈: the same amount, converted by molar mass.

For the compound `O=C1C(=O)c2cccnc2-c2ncccc21.O=C1C(=O)c2cccnc2-c2ncccc21.[Ag+].[O-][Cl+3]([O-])([O-])[O-]` [Ag-phendione, [Ag(phendione)2]ClO4], the “Stability of antifungal activity (MIC variation)” value in [1] is “No variation in MIC values”. The MIC in series [2] worked out at 0.19 µM; in series [4] (C. neoformans ATCC 28957) it was 0.19 µM; in series [4] (C. neoformans H99), 0.78 µM; in series [4] (C. neoformans T1444), 0.78 µM; in series [6] (C. neoformans isolate 213), 1.56 µM; in series [6] (C. neoformans isolate 223) it was 1.56 µM. The MIC in [6] (C. neoformans isolate 350), in series [6] (setting [13]), in [7] (C. gattii isolate 23), in [7] (C. gattii isolate 25), in [7] (C. gattii isolate 27) and in series [7] (setting [14]) was 1.56 µM each time. Further, in series [3], the “Changes in melanization or silk/cocoon production” value was “no visible changes in melanization or silk/cocoon production”. Moreover, the Larval survival in series [3] (125–1000 µM, 10 µL/larva, 37 °C) was found to be 100%; in series [5] (daily inoculation 62.5 µM for up to five days), 100%. Further, in series [5] (setting [12]), the “Alterations in stress indicators (melanization, cocoon formation)” value is on record as “no alterations”. In addition, the “Chronic toxicity (larval survival monitored over seven days)” value in series [5] (setting [12]) is given as “non-toxic”. The MFC in series [6] (C. neoformans isolate 213) is reported as 25 µM; in series [6] (C. neoformans isolate 223) it was 25 µM; in [6] (C. neoformans isolate 350), 25 µM; in series [6] (setting [13]) it was 25 µM; in series [7] (C. gattii isolate 23), 12.5 µM; in series [7] (C. gattii isolate 25) it was 12.5 µM. For the same compound, the MFC in series [7] (C. gattii isolate 27) and in series [7] (setting [14]) was 12.5 µM each time. The “Deaths, behavioral, dietary or body weight changes” value in the series with mice (45 mg/kg daily for five days plus seven days observation) is reported as “no deaths or behavioral, dietary, or body weight changes”. Further, the “AST and ALT activities vs control” value in the series with mice (45 mg/kg daily for five days) was “No significant differences”. Further, the “Acute toxicity: highest dose with 100% tolerance” value with mice (acute) is 150 mg/kg. Also, the “Deaths, changes in behavior, diet or body weight” value with hamsters is recorded as “no deaths or changes in behavior, diet, or body weight”. In addition, the “Urea, creatinine, AST, ALT and alkaline phosphatase levels vs control” value in the series with hamsters is recorded as “no differences”. Further, in [8], the “Hemocyte density vs PBS control” value is recorded as “did not significantly affect hemocyte density”.
Consider `CC[C@H](C)C[C@H](C)CCCCCCCCC(=O)N[C@H]1C[C@@H](O)[C@@H](NCCN)NC(=O)[C@@H]2[C@@H](O)CCN2C(=O)[C@H]([C@H](O)CCN)NC(=O)[C@H]([C@H](O)[C@@H](O)c2ccc(O)cc2)NC(=O)[C@@H]2C[C@@H](O)CN2C(=O)[C@H]([C@@H](C)O)NC1=O` [Caspofungin, caspofungin], for which the MIC in series [9] was more than 8 µg/mL; in series [10] (setting [15]), more than 8 µg/mL; in [10] (setting [16]), more than 8 µg/mL; in series [10] (setting [17]), more than 8 µg/mL; in [10] (setting [18]), more than 7.3 µM; in series [10] (setting [19]), more than 7.3 µM. Moreover, the MIC in series [10] (setting [20]) was more than 7.3 µM; in series [11] (setting [21]) it was more than 8 µg/mL; in [11] (setting [22]), more than 8 µg/mL; in series [11] (setting [23]) it was more than 8 µg/mL; in [11] (setting [24]), more than 7.3 µM; in series [11] (setting [25]), more than 7.3 µM. Also, in series [11] (setting [26]), the MIC was more than 7.3 µM. For the same compound, the Hemocyte density entry in the series on G. mellonella is “do not increase hemocyte density”.
Take `C[C@@H](c1ncncc1F)[C@](O)(Cn1cncn1)c1ccc(F)cc1F` [Voriconazole, voriconazole]: the MIC was 0.5 to 16 µg/mL (≈ 1.43 to 45.8 µM) in [9]; 0.5 µg/mL in [10] (setting [15]); 16 µg/mL in [10] (setting [16]); 2 µg/mL in series [10] (setting [17]); 1.4 µM in series [10] (setting [18]); 45.8 µM in series [10] (setting [19]). Moreover, the MIC was 5.72 µM in series [10] (setting [20]); 4 µg/mL in [11] (setting [21]); 2 µg/mL in series [11] (setting [22]); 4 µg/mL in series [11] (setting [23]); 11.4 µM in series [11] (setting [24]); 5.72 µM in series [11] (setting [25]). In addition, the MIC in series [11] (setting [26]) stood at 11.4 µM.

What is called MIC is the smallest concentration in the dilution series that meets the test's criterion for growth inhibition.
